Measurements as given in patent publication US4888355A, “Indanes and their use as antiarrhythmic agents” (priority 1986, dated 1989).

Tests used:
[1] = Antiarythmic activity, aconitine perfusion in anesthesized rats; assay type: in vivo; conditions: male rats; 10 mg/kg intravenous, 5 minutes before aconitine perfusion 10 μg/mn; vs controls
Experimental: Tracheotomized male rats weighing 300 to 350 g were anesthesized intraperitonally with 1.20 g/kg of urethane and were subjected to artifical respiration of 40 to 50 insufflations of 3 ml/minute. Needles were implanted subcutaneously to register the electrocardiogram of the rats by the signal of DII derivative. The test compounds were administered intraveinously and 5 minutes later, the jugular veins of the rats were perfused with 10 μg/mn or 0.2 ml of an aconitine solution and the time of appearance of troubles in the cardiac rhythm was noted. The results were expressed as a percentage of the elongation of time of the appearance of the cardiac rhythm troubles as compared to the controls and as a function of the dose of the test compound.

Acute toxicity = assay type: in vivo; conditions: mice
Experimental: The LDO or the dose at which there was no mortality after 8 days was determined on mice and the DLO for the compounds of Example 1,3 and 4 was 100, 100 and 200 mg/kg, respectively.

Diuretic activity = assay type: in vivo; conditions: male Sprague-Dawley rats; 1 mg/kg; period t1h-t2h
Experimental: Male rats of the Sprague-Dawley strain weighing 180 to 200 g were fasted for 17 hours before the test but received as much water as they desired. Groups of 8 rats were used for the test doses with the rats receiving the test compound or only the vehicle. The remaining volume was measured hourly for 2 hours after administration of the compound. At the end of this period, the urine was collected and the activity of the compounds was expressed as the percentage of variation calculated as the urinary volume in the period t1h -t2h.

Kappa opiate receptor = target: T1, Kappa opiate receptor (Cavia porcellus, UniProt P41144); assay: In vitro bonding of Kappa opiate receptor; assay type: binding; conditions: guinea pig cerebellum membranes; 1 nM 3H ethylketocyclazocine; pH 7.7; 25° C., 40 minutes; read-out: CI50 (50% inhibiting concentration)
T1 construct: Membrane culots preserved at -30° C. for about 30 days and prepared from guinea pig cerebellum; from tissue; host or cells: guinea pig cerebellum membranes
T1 sequence (P41144 whole entry): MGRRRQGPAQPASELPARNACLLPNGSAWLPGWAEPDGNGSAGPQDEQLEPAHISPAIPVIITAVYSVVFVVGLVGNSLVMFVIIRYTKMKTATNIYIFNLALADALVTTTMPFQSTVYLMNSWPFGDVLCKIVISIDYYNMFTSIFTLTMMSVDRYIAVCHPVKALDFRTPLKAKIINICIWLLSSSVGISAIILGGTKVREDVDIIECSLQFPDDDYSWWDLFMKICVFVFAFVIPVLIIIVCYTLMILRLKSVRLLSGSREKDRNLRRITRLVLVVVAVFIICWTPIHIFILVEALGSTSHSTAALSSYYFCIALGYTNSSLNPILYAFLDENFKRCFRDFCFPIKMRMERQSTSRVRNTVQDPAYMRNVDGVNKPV
Experimental: Membrane culots preserved at -30° C. for about 30 days and prepared from guinea pig cerebellum were suspended in buffered Tris pH of 7.7. 2 ml fractions were placed in hemolysis tubes and 1 nM of 9^3 H ethylketocyclazocine and 5×10^-6 M of test compound were added thereto (in triple). When the test product displaced more than 50% of the radioactivity tied specifically to the receptor, the test was repeated with a range of seven doses to determine the dose which inhibited by 50% the radioactivity tied specifically to the receptor which is deemed CI50. The non-specific bond was determined by the addition of the known product, U-50488 H [Lahti et al., Life Science, Vol. 31 (1982), p 2257], at 10^-5 M (in triple). The mixture was incubated at 25° C. for 40 minutes, placed in a bath at 0° C. for 5 minutes and vacuum filtered. The product was rinsed with buffered Tris at a pH of 7.7 and the radioactivity was counted in the presence of Trition scintillation. The results were expressed directly as the 50% inhibiting concentration (CI50) or the concentration of the test compound which reduced by 50% radioactivity specificity fixed to the standard receptor.

[2] = In vivo analgesic activity, hot plate test; conditions: Mus musculus, sc, 0.5 h; female mice, copper plate 56° C.; subcutaneous; 30 minutes after treatment; read-out: DA100 (dose which increased the reaction time 100%)
Experimental: In the hot plate test, female mice weighing 22 to 24 g were placed individually on a copper plate maintained at 56° C. and the reaction to the pain was manifested by licking of the paws by the animal. […] The mice were divided into homogenous group and the test compound was administered subcutaneously with one group receiving only the vehicle. The reaction time to pain was measured again 30 to 60 minutes after treatment and the dose which increased the reaction time 100% (DA100) 30 minutes after treatment as compared to the control animals was determined. The DA100 for the compound of Example 1 was 8 mg/kg.

Row | Compound | % elongation of time of the appearance of the cardiac rhythm troubles [1] | LDO (dose at which there was no mortality after 8 days) (Acute toxicity) | % Variation (urinary volume) (Diuretic activity) | IC50 (Kappa opiate receptor) | ED (100% increase in reaction time) [2]
1 | CN(C(=O)Cc1cccc2sccc12)[C@@H]1c2ccccc2C[C@H]1N1CCCC1 (racemic) [Example 1, Trans (±) N-[2,3-dihydro-2-(pyrrolidin-1-yl)-1H-inden-1-yl]-N-methyl-4-benzo[b]thiophene-acetamide] | +65% | 100 mg/kg | +131% | 1.8 nM | 8 mg/kg
2 | CN(C(=O)Cc1cccc2ccccc12)[C@@H]1c2ccccc2C[C@H]1N1CCCC1 (racemic) [Example 3, trans (±) N-[2,3-dihydro-2-(1-pyrrolidinyl)-1H-inden-1-yl]-N-methyl-1-naphthalene-acetamide] | – | 100 mg/kg | +267% | 4.9 nM | –
3 | CN(C(=O)Cc1ccc2ccccc2c1)[C@@H]1c2ccccc2C[C@H]1N1CCCC1 (racemic) [Example 4, Trans (±) N-[2,3-dihydro-2-(1-pyrrolidinyl)-1H-inden-1-yl]-N-methyl-2-naphthalene-acetamide] | – | 200 mg/kg | – | – | –
